# Patent US20230416412A1, “PREVENTION OR MITIGATION OF T-CELL ENGAGING AGENT-RELATED ADVERSE EFFECTS” (Hoffmann-La Roche Inc., priority 2022, published 2023)
# Columns and labels:
# CD19+ B cells = experiment: Whole blood assay: CD20-TCB-induced killing of CD19+ B cells (flow cytometry); type: cell-based, human; settings: 10 μM NLRP3 inhibitor, escalating CD20-TCB, fresh whole blood of 3 healthy donors, 24 hrs
# Method: (§1) FIGS. 1A-1N. Effect of the NLRP3 inhibitor on CD20-TCB-mediated T cell activation, B cell depletion and cytokine release. Fresh whole blood from a healthy donor (donor 1) was incubated with escalating doses of CD20-TCB and 10 μM NLRP3 inhibitor. At 24 hrs, blood from technical replicates was pooled and lysed. FIG. 1A. The killing of CD19+ B cells was measured by flow cytometry. FIG. 1B and FIG. 1C. The expression of CD25 on CD4+ (1B) and CD8+ (1C) T cells was measured by flow cytometry. At 24 hrs, serum from technical replicates were collected and pooled. FIG. 1D-FIG. 1N. The levels of IFN-γ (1D), IL-2 (1E), IL-1β (1F), IL-1Ra (1G), TNF-α (1H), IP-10 (1I), IL-6 (1J), IL-8 (1K), MCP-1 (1L), MIP-1α (1M) and MIP-1β (1N) were measured by Luminex.
# FIGS. 2A-2N. Effect of the NLRP3 inhibitor on CD20-TCB-mediated T cell activation, B cell depletion and cytokine release. […] The killing of CD19+ B cells was measured by flow cytometry. […] The expression of CD25 on CD4+ (FIG. 2B) and CD8+ (FIG. 2C) T cells was measured by flow cytometry. […] The levels of IFN-γ (2D), IL-2 (2E), IL-1β (2F), IL-1Ra (2G), TNF-α (2H), IP-10 (2I), IL-6 (2J), IL-8 (2K), MCP-1 (2L), MIP-1α (2M) and MIP-1β (2N) were measured by Luminex.
# FIGS. 3A-3N. […] The killing of CD19+ B cells was measured by flow cytometry. […] The expression of CD25 on CD4+ (3B) and CD8+ (3C) T cells was measured by flow cytometry. […]
# CD4+ and CD8+ T cells = experiment: Whole blood assay: CD20-TCB-induced T cell activation, CD25 expression (flow cytometry); type: cell-based, human; settings: 10 μM NLRP3 inhibitor, 24 hrs
# Method: as §1
# (§2) FIGS. 2A-2N. Effect of the NLRP3 inhibitor on CD20-TCB-mediated T cell activation, B cell depletion and cytokine release. Fresh whole blood from a healthy donor (donor 2) was incubated with escalating doses of CD20-TCB and 10 μM NLRP3 inhibitor. At 24 hrs, blood from technical replicates was pooled and lysed. FIG. 2A. The killing of CD19+ B cells was measured by flow cytometry. FIG. 2B and FIG. 2C. The expression of CD25 on CD4+ (FIG. 2B) and CD8+ (FIG. 2C) T cells was measured by flow cytometry. At 24 hrs, serum from technical replicates were collected and pooled. FIG. 2D-FIG. 2N. The levels of IFN-γ (2D), IL-2 (2E), IL-1β (2F), IL-1Ra (2G), TNF-α (2H), IP-10 (2I), IL-6 (2J), IL-8 (2K), MCP-1 (2L), MIP-1α (2M) and MIP-1β (2N) were measured by Luminex.
# (§3) FIGS. 3A-3N. Effect of the NLRP3 inhibitor on CD20-TCB-mediated T cell activation, B cell depletion and cytokine release. Fresh whole blood from a healthy donor (donor 3) was incubated with escalating doses of CD20-TCB and […] NLRP3 inhibitor. At 24 hrs, blood from technical replicates was pooled and lysed. FIG. 3A. The killing of CD19+ B cells was measured by flow cytometry. FIG. 3B and FIG. 3C. The expression of CD25 on CD4+ (3B) and CD8+ (3C) T cells was measured by flow cytometry. At 24 hrs, serum from technical replicates were collected and pooled. FIG. 3D-FIG. 3N. The levels of IFN-γ (3D), IL-2 (3E), IL-1β (3F), IL-1Ra (3G), TNF-α (3H), IP-10 (3I), IL-6 (3J), IL-8 (3K), MCP-1 (3L), MIP-1α (3M) and MIP-1β (3N) were measured by Luminex.
# (§4) To assess the effects of the NLRP3 inhibitor on TCB-mediated target cell killing and T cell activation, we conducted whole blood assays using fresh whole blood from 3 healthy donors incubated with escalating concentrations of CD20-TCB (SEQ ID NOs 4-23) in combination with 10 μM of the NLRP3 inhibitor (MCC950, Sigma-Aldrich). At 24 hrs, the killing of CD19+ B cells together with the expression of CD25 on CD4+ and CD8+ T cells was measured in whole blood by flow cytometry.
# [1] = tested on: cytokine release in whole blood; experiment: Whole blood assay: CD20-TCB-mediated cytokine release, serum cytokines by Luminex; type: cell-based, human
# Method: as §1, §2, §3, §4
# The levels of cytokines were measured by Luminex in the serum of whole blood treated with CD20-TCB in the presence and in the absence of the NLRP3 inhibitor to determine the effects of the NLRP3 inhibitor on cytokine release.
# OCI-LY18 tumor cells = experiment: Anti-tumor efficacy of CD20-TCB in DLBCL tumor model in humanized NSG mice; type: in vivo; settings: 20 mg/kg NLRP3 inhibitor i.p.
# Method: FIGS. 4A-4B. Effect of the NLRP3 inhibitor on CD20-TCB-mediated anti-tumor efficacy. OCI-Ly18-bearing humanized NSG mice were pre-treated with 30 mg/kg obinutuzumab (Gazyva® pre-treatment, Gpt, dotted black arrow) and then treated with escalating doses of CD20-TCB (black arrows, 0.5 mg/kg on the 1st treatment, 1 mg/kg on the 2nd treatment and 2 mg/kg on the 3rd treatment) by intravenous (i.v.) injections. 20 mg/kg NLRP3 inhibitor (grey arrows) was given by intraperitoneal injections 1 hr before, 4 hrs and 24 hrs after the 1st CD20-TCB therapy as well as 1 hr before and 4 hrs after the 2nd CD20-TCB therapy. FIG. 4A. Tumor growth inhibition curves, means−/+SD. Tumor volumes were calculated from caliper measurements conducted 2 or 3 times per week. FIG. 4B. […] Tumors were digested and the counts of CD8+ T cells were measured by flow cytometry.
# The effects of the NLRP3 inhibitor on anti-tumor efficacy and cytokine release mediated by CD20-TCB in vivo were evaluated using a diffused large B cell lymphoma (DLBCL) tumor model in humanized NSG mice. […]
# To assess the effects of the NLRP3 inhibitor on tumor growth, tumor volumes were calculated from caliper measurements twice or three times per week. Furthermore, the counts of CD8+ T cells were measured by flow cytometry in tumors collected 24 hrs after the third treatment with CD20-TCB.
# cytokine release = experiment: CD20-TCB-mediated cytokine release in vivo, serum cytokines by Luminex; set-up: species or system humanized NSG mice; settings: 3 hrs after first CD20-TCB treatment
# Method: FIGS. 5A-5E. Effect of the NLRP3 inhibitor on IL-2, IFN-γ, TNF-α, IL-1β, and IL-6 induced by CD20-TCB. Treatment was performed as described in FIG. 4. Blood was collected by tail-vein bleedings 3 hrs after the 1st CD20-TCB therapy. The levels of FIG. 5A. IL-2, FIG. 5B. IFN-γ, FIG. 5C. TNF-α, FIG. 5D. IL-1β, and FIG. 5E. IL-6 were measured in the serum by Luminex. Means of n=5 mice+/−SEM.
# FIG. 6. Heatmap representing the effects of the NLRP3 inhibitor on CD20-TCB mediated cytokine release. Treatment was performed as described in FIG. 4. Blood was collected by tail-vein bleeding 3 hrs after the 1st CD20-TCB therapy. The levels of IFN-γ, IL-2, TNF-α, IP-10, IL-1β, IL-1Ra, IL-6, IL-8, MCP-1, MIP-1α and MIP-1β were measured in serum by Luminex for n=5 mice per group.
# The effects of the NLRP3 inhibitor on anti-tumor efficacy and cytokine release mediated by CD20-TCB in vivo were evaluated using a diffused large B cell lymphoma (DLBCL) tumor model in humanized NSG mice. Briefly, humanized NSG mice were engrafted with OCI-LY18 tumor cells. When the tumor volume reached 200 mm^3, mice were randomized in groups of 14 based on their tumor size. They were then pre-treated with 30 mg/kg obinutuzumab (Gazyva® pre-treatment, GpT) 7 days before being treated with CD20-TCB to deplete peripheral B cells. The NLRP3 inhibitor was given 1 hr before and 4 and 24 hrs after the first CD20-TCB treatment as well as 1 hr before and 4 hrs after the second CD20-TCB treatment.
# The levels of cytokines were measured in serum collected by tail-vein bleedings 3 hrs after the first treatment with CD20-TCB to determine the effects of the NLRP3 inhibitor on CD20-TCB-mediated cytokine release in vivo. In line with previous in vitro findings, the NLRP3 inhibitor retained IL-2, IFN-γ, TNF-α while reducing IL-6, IL-8 and IL-1β levels induced by CD20-TCB (FIGS. 5A-E, FIG. 6). In addition, the NLRP3 inhibitor modified the cytokine profile induced by CD20-TCB treatment, as indicated by the heat map showing the levels of IFN-γ, IL-2, TNF-α, […], IL-1Ra, IL-6, IL-8, MCP-1, MIP-1α and […] which were measured 3 hrs after the first treatment with CD20-TCB (FIG. 6). Last, we measured the body weight of each animal before and after the first treatment with CD20-TCB to calculate the body weight change. […] (FIG. 7).
# [2] = Body weight change after first CD20-TCB therapy; type: in vivo, humanized NSG mice; settings: before and after the first CD20-TCB treatment, 20 mg/kg NLRP3 inhibitor i.p.
# Method: FIG. 7. Effect of the NLRP3 inhibitor on body weight loss induced by the first CD20-TCB therapy. Treatment was performed as described in FIG. 4. The body weight of each animal was measured before and after the first therapy with CD20-TCB to calculate body weight change [%]. Means+/−SEM.
# The effects of the NLRP3 inhibitor on anti-tumor efficacy and cytokine release mediated by CD20-TCB in vivo were evaluated using a diffused large B cell lymphoma (DLBCL) tumor model in humanized NSG mice. Briefly, humanized NSG mice were engrafted with OCI-LY18 tumor cells. When the tumor volume reached 200 mm^3, mice were randomized in groups of 14 based on their tumor size. […]
# The levels of cytokines were measured in serum collected by tail-vein bleedings 3 hrs after the first treatment with CD20-TCB to determine the effects of the NLRP3 inhibitor on CD20-TCB-mediated cytokine release in vivo. […] In addition, the NLRP3 inhibitor modified the cytokine profile induced by CD20-TCB treatment, as indicated by the heat map showing the levels of IFN-γ, IL-2, TNF-α, […], IL-1Ra, IL-6, IL-8, MCP-1, MIP-1α and […] which were measured 3 hrs after the first treatment with CD20-TCB (FIG. 6). Last, we measured the body weight of each animal before and after the first treatment with CD20-TCB to calculate the body weight change. […]
# [3] = 10 μM NLRP3 inhibitor with CD20-TCB, whole blood serum, 24 hrs, 3 donors
# [4] = 10 μM NLRP3 inhibitor with CD20-TCB, whole blood serum, 24 hrs, in all 3 donors
smiles,measurement,setting,value
"CC(C)(O)c1coc(S(=O)(=O)NC(=O)Nc2c3c(cc4c2CCC4)CCC3)c1 [NLRP3 inhibitor, MCC950]",CD20-TCB-induced B cell depletion (percentage of CD19+ B cells among CD45+ cells),CD19+ B cells,minimally interfered
same,CD20-TCB-induced B cell depletion (percentage of CD19+ B cells among CD45+ cells),CD19+ B cells; listed as MCC950,retaining
same,T cell activation induced by CD20-TCB,CD4+ and CD8+ T cells,did not interfere
same,T cell activation induced by CD20-TCB,CD4+ and CD8+ T cells; listed as MCC950,retaining
same,expression of the activation marker CD25 on CD4+ T cells,"CD4+ and CD8+ T cells; escalating CD20-TCB, 3 donors",did not prevent
same,expression of the activation marker CD25 on CD8+ T cells,"CD4+ and CD8+ T cells; escalating CD20-TCB, 3 donors",did not prevent
same,level of IFN-γ,[1]; [3],did not influence
same,level of IL-1Ra,[1]; [3],did not influence
same,level of IL-2,[1]; [3],did not influence
same,level of IP-10,[1]; [3],did not influence
same,level of MCP-1,[1]; [3],did not influence
same,level of MIP-1α,[1]; [3],did not influence
same,level of MIP-1β,[1]; [3],did not influence
same,level of TNF-α,[1]; [3],did not influence
same,level of IL-6,"[1]; 10 μM NLRP3 inhibitor with CD20-TCB, whole blood serum, 24 hrs, in 2 out of 3 donors",reduced
same,level of IL-1β,[1]; [4],reduced
same,level of IL-8,[1]; [4],reduced
same,TCB-induced cytokine release,[1]; general statement,reduce
same,anti-tumor efficacy mediated by CD20-TCB (tumor volume),"OCI-LY18 tumor cells; obinutuzumab pre-treatment, CD20-TCB 0.5, 1, 2 mg/kg i.v. weekly",did not interfere
same,CD8+ T cell infiltration in tumors,"OCI-LY18 tumor cells; 24 hrs after the third CD20-TCB treatment, flow cytometry",did not interfere
same,serum IFN-γ level induced by CD20-TCB,cytokine release; 20 mg/kg NLRP3 inhibitor i.p.,retained
same,serum IL-1β level induced by CD20-TCB,cytokine release; 20 mg/kg NLRP3 inhibitor i.p.,reducing
same,serum IL-2 level induced by CD20-TCB,cytokine release; 20 mg/kg NLRP3 inhibitor i.p.,retained
same,serum IL-6 level induced by CD20-TCB,cytokine release; 20 mg/kg NLRP3 inhibitor i.p.,reducing
same,serum IL-8 level induced by CD20-TCB,cytokine release; 20 mg/kg NLRP3 inhibitor i.p.,reducing
same,serum TNF-α level induced by CD20-TCB,cytokine release; 20 mg/kg NLRP3 inhibitor i.p.,retained
same,cytokine profile induced by CD20-TCB treatment (heat map),cytokine release; 11 cytokines in serum,modified
same,body weight loss induced by CD20-TCB,[2],prevented body weight loss
